According to patent US10894794B1, “Substituted [1,2,4]triazolo[4,3-a]pyrazines as antidiabetics” (King Abdulaziz University, priority 2019, dated 2021):
Marks after values point to notes of the source that are not given here.

Columns and labels:
Assay type in all cases: in vivo
[1] = system: overnight fasted diabetic mice; test: OGTT after multiple doses (6 consecutive days); conditions: for AUC in OGTT, % change from diabetic control / AUC in OGTT, Δ from diabetic control / Relative potency to sitagliptin (OGTT AUC) / AUC in OGTT, X (arithmetic mean): 50 mg/kg oral for six days; for AUC in OGTT, X (arithmetic mean): 2 h before glucose loading, AUC 0-120 min; for relative potency in OGTT compared with sitagliptin (in words): 6 consecutive days, 50 mg/kg
Protocol: The tested compounds were given daily by oral gavage for 6 consecutive days. On day 6, the overnight fasted diabetic mice were pretreated with the 6th oral dose of the tested compounds. Then an oral glucose was loaded (2 g/kg/10 ml b.w.) 2 h after drug treatment. Blood glucose levels were determined using the Accu-check Go® (Roche Diagnostics, Michigan, USA). Samples were collected just before drug administration (Fasting Blood glucose), then 2 h after drug treatment and before glucose administration. Sample collection was continued at 20, 40, 60 and 120 min intervals after glucose loading.
• b. Group 1: Animals of this group are 14 h overnight-fasted normoglycemic mice received the vehicle (1% CMC-Na) at a dosing volume of 10 ml/kg/day for six consecutive days. • c. Group 2: Overnight-fasted diabetic mice received the vehicle (1% CMC-Na) at a dosing volume of 10 ml/kg/day for six consecutive days and served as a negative control. • d. Group 3: Overnight-fasted diabetic mice received sitagliptin at a dose of 50 mg/kg/day for six consecutive days and served as positive control. • e. Groups 4-17: Animals in these groups were overnight-fasted diabetic mice and received the tested compounds 128, 129, 130, 131, at a dose of 50 mg/kg/day for six consecutive days (volume of 10 ml/kg). Effect on Blood Glucose Level after Introduction of Food for One Hour (≈Meal Tolerance Test) Rational of the Test

[2] = system: 14 h overnight-fasted diabetic mice; test: Blood glucose after introduction of food for one hour (meal tolerance test); conditions: for antihyperglycemic activity after introduction of food (blood glucose rise and total AUC(0-180), in words): 50 mg/kg, 3 h before introduction of food; for Area under the curve AUC(0-180) after meal feeding: Day 1, 50 mg/kg oral, 3 hr pretreated
Protocol: The rational of this test was to determine the ability of the tested compounds to modulate glucose utilization after the introduction of food, after 3 h of drug administration to 14 h overnight-fasted mice (feeding with normal diet was done for 1 hr only, then food was removed during the remaining time of the test). This model is analogous to oral glucose tolerance tests (OGTT) used clinically to evaluate glycemic control, except that the meal was composed of fats, proteins and carbohydrates, and thus was a more realistic representation of the nutritional makeup of normal food. The main purpose is that during meal digestion, food contents e.g. carbohydrates, proteins and fats, were reported to cause an increase in the production of the GLP-I from the L-cells in ileum and colon. The produced GLP-I goes into circulation directly and affects insulin secretion from pancreatic β-cells. Both the GPL-I and insulin levels are expected to be high especially in the presence of a […] inhibitor.
Animals were Distributed Between 17 Groups (n=6) as Follows: • a. Group 1. Animals of this group were overnight-fasted normoglycemic mice and received the vehicle (1% CMC-Na) at a volume of 10 ml/kg/day for 4 consecutive days. • b. Group 2: overnight-fasted diabetic mice received the vehicle (1% CMC-Na) at a volume of 10 ml/kg/day for 4 consecutive days and served as a negative control. • c. Group 3: overnight fasted diabetic mice received sitagliptin at a dose of 50 mg/kg/day for 4 consecutive days in 1% CMC (in a volume of 10 ml/kg) and served as positive control. • d. Groups 4-19: Animals of these groups were overnight-fasted diabetic mice and received the tested compounds 128, 129, 130, 131,140, 142 at a dose of 50 mg/kg/day for 4 consecutive days in 1% CMC (volume of 10 ml/kg). Food was introduced for one hour only then food was removed immediately. Blood glucose levels were determined just before and 3 h after drug administration and then at 0, 60, 120 and 180 min after meal. Blood Sampling and Blood Glucose Determination
Blood samples were collected from the tail vein and the blood glucose level was determined. Curves of blood glucose levels (mg/dL) versus the time intervals (min) were constructed and the area under the curves (AUCs) were calculated by the method of calculation embedded in GraphPad Prism® v. 5.0 (GraphPad Software, San Diego, Calif., USA). AUCs of the curves of the different groups were compared and tested for significance against control groups.

[3] = system: 14 h overnight fasted diabetic mice; test: Oral glucose tolerance test (OGTT) after single dose; conditions: for glucose-lowering activity in OGTT compared with sitagliptin (in words): single dose 50 mg/kg; for Relative potency to sitagliptin (OGTT AUC) / AUC in OGTT, % change from diabetic control / AUC in OGTT, Δ from diabetic control / AUC in OGTT, X (arithmetic mean): single oral dose 50 mg/kg; for AUC in OGTT, % change from diabetic control / AUC in OGTT, Δ from diabetic control / AUC in OGTT, X (arithmetic mean): 2 h before glucose loading; for AUC in OGTT, X (arithmetic mean): AUC 0-120 min
Protocol: The oral glucose tolerance test was done in 14 h overnight fasted diabetic mice that were pretreated with a single oral dose of the tested compounds. Each of the tested agents was suspended in sodium carboxymethyl cellulose (CMC-Na) (1% in distilled water) and the dosing volume was adjusted to 10 ml/kg body weight per mouse. Then an oral glucose load was administered (2 g/kg) 2 h after drug treatment. Blood glucose levels were determined using the Accu-check Go® (Roche Diagnostics, Michigan, USA). Blood samples were collected just before drug administration (Fasting Blood glucose), then 2 h after drug treatment and before glucose loading. Blood samples collection was continued at 20, 40, 60 and 120 min intervals after glucose loading.
Animals were distributed between 17 groups (n=6) as follow: • a. Group 1: Animals were 14 h overnight-fasted normoglycemic mice and vehicle-treated (1% CMC-Na) at a dose of 10 ml/kg. • b. Group 2: Overnight fasted diabetic mice received the vehicle (1% CMC-Na) at a dosing volume of 10 ml/kg and served as a negative control. • c. Group 3: Overnight fasted diabetic mice received sitagliptin at a dose of 50 mg/kg in 1% CMC (in a volume of 10 ml/kg) and served as positive control. • a. Groups 4-17: Animals of these groups were overnight fasted diabetic mice received the tested compounds 128, 129, 130, 131, at a dose of 50 mg/kg in 1% CMC (volume of 10 ml/kg).

N#Cc1cccc(NC(=O)CN2CCn3c(nnc3C(F)(F)F)C2)c1 [GLP-142]
AUC in OGTT, % change from diabetic control [1]: −19.4% | AUC in OGTT, Δ from diabetic control [1]: -10216 mg·min/dL | Relative potency to sitagliptin (OGTT AUC) [1]: 0.513 | AUC in OGTT, X (arithmetic mean) [1]: 42439* mg · dL^−1 · min | antihyperglycemic activity after introduction of food (blood glucose rise and total AUC(0-180), in words) [2]: significant antihyperglycemic activity | glucose-lowering activity in OGTT compared with sitagliptin (in words) [3]: less potent than sitagliptin | Relative potency to sitagliptin (OGTT AUC) [3]: 0.76 | AUC in OGTT, % change from diabetic control [3]: −18.51% | AUC in OGTT, Δ from diabetic control [3]: -9452 mg·min/dL | AUC in OGTT, X (arithmetic mean) [3]: 41613 mg·min/dL

C[C@H](NC(=O)c1cccc(Cl)c1)C(=O)N1CCn2c(nnc2C(F)(F)F)C1 [GLP-130]
AUC in OGTT, % change from diabetic control [1]: −34.11% | AUC in OGTT, Δ from diabetic control [1]: -17983 mg·min/dL | Relative potency to sitagliptin (OGTT AUC) [1]: 0.90 | AUC in OGTT, X (arithmetic mean) [1]: 34672* mg · dL^−1 · min | relative potency in OGTT compared with sitagliptin (in words) [1]: comparable or higher relative potency than sitagliptin | antihyperglycemic activity after introduction of food (blood glucose rise and total AUC(0-180), in words) [2]: significant antihyperglycemic activity | Area under the curve AUC(0-180) after meal feeding [2]: 50478 ± mg · dL^−1 · min | glucose-lowering activity in OGTT compared with sitagliptin (in words) [3]: higher glucose-lowering activity than sitagliptin | Relative potency to sitagliptin (OGTT AUC) [3]: 1.32 | AUC in OGTT, % change from diabetic control [3]: −32.01% | AUC in OGTT, Δ from diabetic control [3]: -16345 mg·min/dL | AUC in OGTT, X (arithmetic mean) [3]: 34720* mg · dL^−1 · min

O=C(CN1CCn2c(nnc2C(F)(F)F)C1)NC1CCCCC1 [GLP-140]
AUC in OGTT, % change from diabetic control [1]: −38.32% | AUC in OGTT, Δ from diabetic control [1]: -20180 mg·min/dL | Relative potency to sitagliptin (OGTT AUC) [1]: 1.01 | AUC in OGTT, X (arithmetic mean) [1]: 32475* mg · dL^−1 · min | relative potency in OGTT compared with sitagliptin (in words) [1]: comparable or higher relative potency than sitagliptin | antihyperglycemic activity after introduction of food (blood glucose rise and total AUC(0-180), in words) [2]: significant antihyperglycemic activity | Area under the curve AUC(0-180) after meal feeding [2]: 72873 ± mg · dL^−1 · min | glucose-lowering activity in OGTT compared with sitagliptin (in words) [3]: less potent than sitagliptin | Relative potency to sitagliptin (OGTT AUC) [3]: 0.69 | AUC in OGTT, % change from diabetic control [3]: −16.89% | AUC in OGTT, Δ from diabetic control [3]: -8626 mg·min/dL | AUC in OGTT, X (arithmetic mean) [3]: 42439 mg·min/dL
